From patent US20180050040A1, “USE OF 4-(4-FLUORO-2-METHOXYPHENYL)-N--1,3,5-TRIAZIN-2-AMINE FOR TREATING LYMPHOMAS” (Bayer Pharma Aktiengesellschaft, priority 2015, published 2018)
Values joined by “and” are separate entries in the source; they are usually repeats but may differ in a detail not shown here. Equal entries are not always repeated.

What was measured:
S-YU = assay: Cell proliferation assay (CellTiter Glo), S-YU with IL-2; type: cell-based; details: ATL, after 24 hours of incubation, IL-2 100 IU/mL
Method: (§1) The proliferation of all lymphoma cell lines, other than S-YU, in the presence of different concentrations of Compound A′ for 72 h was assessed using CellTiter Glo kits (Promega Corporation, Madison, Wis.). Proliferation of S-YU in the presence of recombinant human interleukin-2 (IL-2) at a final concentration of 100 IU/mL, with different concentrations of Compound A′ for 24 h, was assessed in the same manner. All expressed values were averages of triplicate experiments, and IC50 was calculated using GraphPad Prism 5 (GraphPad Software, San Diego, Calif.) according to the manufacturer's instructions or the MTS software.

ATL tumor cells (S-YU) [1] = assay: ATL cell-bearing NOG mice treated for 18 days, efficacy evaluated 25 days after inoculation; type: in vivo; details: 12.5 mg/kg p.o. once daily 18 days
Method: (§2) NOD/Shi-scid, IL-2Rγ^null (NOG) mice were purchased from the Central Institute for Experimental Animals (Kanagawa, Japan) and used at between 6-8 weeks of age.
A leukemic cell clone from a patient with ATL, which could be serially transplanted into SCID mice and was designated S-YU as reported previously (Eur J Haematol. 2014; 92(3):219-228), was injected intraperitoneally (i.p.) into NOG mice. Three to four weeks after i.p. injection, NOG mice developed intraperitoneal masses within the mesentery. Cells from these intraperitoneal masses were suspended in RPMI-1640 and inoculated i.p. into healthy NOG mice, which then presented with disease features identical to those of the original mice. ATL tumor cells (S-YU) from the intraperitoneal masses were suspended in RPMI-1640, and 1.0×10^7 cells were inoculated i.p. into each of 16 naive NOG mice. The animals were randomly divided into two groups of eight each for treatment with Compound A′ or vehicle, seven days after ATL cell inoculations. Compound A′ was formulated in 40% PEG400 in water at a final concentration of 2.5 mg/mL. Mice were treated by oral application of 12.5 mg/kg Compound A′ (0.25 mg/100 μL per mouse) or vehicle (100 μL), once daily for 18 days (7-24 days after ATL cell inoculations). Therapeutic efficacy was then evaluated 25 days after ATL cell inoculations.
The concentration of human soluble IL-2 receptor (sIL2R) in mouse serum was measured by enzyme-linked immunosorbent assay (ELISA) using a human sIL2R immunoassay kit (R&D Systems, Minneapolis, Minn.) according to the manufacturer's instructions. All expressed values were averages of triplicate experiments.
(§3) Differences between groups regarding the percentage of ATL cells in mouse liver and bone marrow cell suspensions, and human sIL2R concentrations in mouse sera, were examined using a Mann-Whitney U test. Mouse survival analyses were done by Kaplan-Meier method, and survival curves were compared using the log-rank test. All analyses were performed using SPSS Statistics 17.0 software (SPSS Inc., Chicago, Ill.). In this study, P<0.05 was considered significant.

ATL tumor cells (S-YU) [2] = assay: ATL cell-bearing NOG mice treated for 21 days, survival times; type: in vivo
Method: as §2
ATL cells from intraperitoneal masses suspended in RPMI-1640 were also inoculated i.p. into another 14 naive NOG mice at 1.0×10^7 cells per mouse. These animals were randomly divided into two groups of seven each for treatment with Compound A′ or vehicle. Compound A′ was formulated in the same manner, and mice were treated by oral application of 12.5 mg/kg Compound A′ or vehicle, once daily for 21 days (7-27 days after ATL cell inoculations). The therapeutic efficacy of Compound A′ was evaluated according to survival times.
as §3

[3] = test system: DLBCL OCI-LY-7 xenografts; assay: In vivo efficacy and tolerability in DLBCL OCI-LY-7 tumour model subcutaneously implanted in NOG mice; details: 25 mg/kg/day p.o.
Method: The aim of the present experiments was to assess the in vivo efficacy and tolerability of Compound A′ in monotherapy in the DLBCL OCI-LY-7 tumour model subcutaneously implanted in NOG mice.
In vivo efficacy was determined in female NOG mice bearing subcutaneous DLBCL OCI-LY-7 xenografts. Compound A′ was assessed at one dose level in monotherapy. Anti-tumour activity and tolerability of the treated group was assessed using the vehicle control group as a reference.
Mouse strain, sex: NOG, female Animals supplied by: Taconic, Denmark Approximate age at implantation: 5-7 weeks
DLBCL tumour fragments, derived from the OCI-LY-7 cell line, were obtained from xenografts in serial passage in nude mice and placed in PBS containing 10% penicillin/streptomycin. Tumour fragments (one fragment per animal; 3-4 mm edge length) were then subcutaneously implanted in the flank of NOG recipient mice under isofluorane anaesthesia.
At randomisation, the volume of growing tumours was initially determined. […] The result of the randomisation was documented and maintained with the experimental data. Animals not randomised were euthanised. The day of randomisation is designated as day 0 of an experiment.
Vehicle: 80% (m/V) PEC400 in water for injection Compound A′: preparation of a dosing solution (2.5 mg/ml) once weekly by diluting the Compound A′ powder at 0.25% (w/v) in vehicle; storage of the dosing solution at 4° C.; dosing volume 10 ml/kg
Mortality checks were conducted daily during routine monitoring.
Mice were weighed twice a week. Relative body weights of individual mice in % were calculated by dividing the individual body weight on day X (BWX) by the individual body weight on day 0 (BW0) multiplied by 100 according to the formula: […]
Group median relative body weights were calculated as well, considering only the weights of mice that were alive on the day in question.
The tumour volumes were determined by two-dimensional measurement with a caliper on the day of randomisation (day 0) and then twice weekly (i.e. on the same days on which mice were weighed). Tumour volumes were calculated according to the formulas:
Tumour volume=(a×b^2)×0.5
Relative volumes of individual tumours (RTVs) for Day x were calculated by dividing the absolute individual tumour volume on Day x (Tx) by the absolute individual tumour volume of the same tumour on Day 0 (T0) multiplied by 100%:
Anti-tumour activity was evaluated as maximum tumour volume inhibition versus the vehicle control group.
Tumour inhibition for a particular day (T/C in %) was calculated from the ratio of the median RTV values of test versus control groups multiplied by 100.
The minimum (or optimum) T/C % value recorded for a particular test group during an experiment represents the maximum anti-tumour activity for the respective treatment. T/C values were calculated if at least 50% of the randomised animals in a group were alive on the day in question.
Group optimum T/C values (in %) were used for activity rating as follows: […]

TL-SU = assay: Cell proliferation assay (CellTiter Glo); type: cell-based; details: HTLV-1-immortalized cell line, 72 h
Method: as §1

MT-1 = assay: Cell proliferation assay (CellTiter Glo); type: cell-based; details: MT-1, ATL; 72 h
Method: as §1

OCI-LY-3 = assay: Cell proliferation assay (CellTiter Glo); type: cell-based; details: Homo sapiens, OCI-Ly3; OCI-LY-3, DLBCL, ABC subtype; 72 h
Method: as §1

OCI-LY-19 = assay: Cell proliferation assay (CellTiter Glo); type: cell-based; details: Homo sapiens, OCI-LY19; OCI-LY-19, DLBCL, GCB subtype; 72 h
Method: as §1

HT = assay: Cell proliferation assay (CellTiter Glo); type: cell-based; details: Homo sapiens, DLBCL, GCB subtype, 72 h
Method: as §1

MT-2 = assay: Cell proliferation assay (CellTiter Glo); type: cell-based; details: Homo sapiens, MT2; MT-2, HTLV-1-immortalized cell line; 72 h
Method: as §1

MT-4 = assay: Cell proliferation assay (CellTiter Glo); type: cell-based; details: Homo sapiens, MT4; MT-4, HTLV-1-immortalized cell line; 72 h
Method: as §1

Jeko-1 = assay: Cell proliferation assay (CellTiter Glo); type: cell-based; details: Homo sapiens; Jeko-1, Mantle cell lymphoma; 72 h
Method: as §1

SU-DHL-4 = assay: Cell proliferation assay (CellTiter Glo); type: cell-based; details: Homo sapiens; SU-DHL-4, DLBCL, GCB subtype; 72 h
Method: as §1

KM-H2 = assay: Cell proliferation assay (CellTiter Glo); type: cell-based; details: Homo sapiens; KM-H2, Hodgkin lymphoma; 72 h
Method: as §1

DB = assay: Cell proliferation assay (CellTiter Glo); type: cell-based; details: Homo sapiens, DLBCL, GCB subtype, 72 h
Method: as §1

Karpas422 = assay: Cell proliferation assay (CellTiter Glo); type: cell-based; details: Homo sapiens, KARPAS-422; Karpas422, Follicular lymphoma; 72 h
Method: as §1

HBL1 = assay: Cell proliferation assay (CellTiter Glo); type: cell-based; details: HBL1, DLBCL, ABC subtype; 72 h
Method: as §1

SU-DHL-10 = assay: Cell proliferation assay (CellTiter Glo); type: cell-based; details: Homo sapiens, SU-DHL10; SU-DHL-10, DLBCL, GCB subtype; 72 h
Method: as §1

ATN-1 = assay: Cell proliferation assay (CellTiter Glo); type: cell-based; details: Homo sapiens; ATN-1, ATL; 72 h
Method: as §1

SU-DHL-6 = assay: Cell proliferation assay (CellTiter Glo); type: cell-based; details: Homo sapiens; SU-DHL-6, DLBCL, GCB subtype; 72 h
Method: as §1

SU-DHL-8 = assay: Cell proliferation assay (CellTiter Glo); type: cell-based; details: Homo sapiens; SU-DHL-8, DLBCL, GCB subtype; 72 h
Method: as §1

MJ = assay: Cell proliferation assay (CellTiter Glo); type: cell-based; details: ATL, 72 h
Method: as §1

Ramos = assay: Cell proliferation assay (CellTiter Glo); type: cell-based; details: Homo sapiens, Burkitt's lymphoma, 72 h
Method: as §1

TL-Om1 = assay: Cell proliferation assay (CellTiter Glo); type: cell-based; details: TL-Om1, ATL; 72 h
Method: as §1

[4] = individual treated NOG mice 1-8, 25 days after inoculation, 12.5 mg/kg
[5] = OCI-LY-7 xenograft-bearing NOG mice, days 0-27

SMILES: COc1cc(F)ccc1-c1ncnc(Nc2cccc(CS(C)(=N)=O)c2)n1 (single isomer, unassigned; (+)) [Compound A′, (+)-4-(4-Fluoro-2-methoxyphenyl)-N-{3-[(S-methylsulfonimidoyl)methyl]phenyl}-1,3,5-triazin-2-amine]
- IC50 (S-YU): 2960 nM
- percentage of ATL cells (human CD45-positive, CD4-positive, CD8-negative) in bone marrow cell suspension (ATL tumor cells (S-YU) [1]; [4]): 0.01% (4×) and 0.02% (2×) and 0.72% and < 0.01%
- percentage of ATL cells (human CD45-positive, CD4-positive, CD8-negative) in liver cell suspension (ATL tumor cells (S-YU) [1]; [4]): 0.9% and 1.6% and 1.0% and 0.4% and 2.2% and 1.1% and 0.6% and 0.5%
- concentration of human sIL2R in serum, mean (ATL tumor cells (S-YU) [1]; treated NOG mice 1-8, ELISA): 84500 pg/mL
- concentration of human sIL2R in serum, median (ATL tumor cells (S-YU) [1]; treated NOG mice 1-8, ELISA): 84900 pg/mL
- concentration of human sIL2R in serum, range (ATL tumor cells (S-YU) [1]; treated NOG mice 1-8, ELISA): 69.0-97.4 ×10^3 pg/mL
- Toxicity attributable to compound (ATL tumor cells (S-YU) [2]; ATL cell-bearing NOG mice, 12.5 mg/kg p.o. once daily, during the study period): not observed
- survival of ATL cell-bearing mice (ATL tumor cells (S-YU) [2]; thirty-eight days after ATL cell inoculation, 12.5 mg/kg p.o. once daily 21 days, n=7): all alive
- OCI-LY-7 tumour growth compared to vehicle control group ([3]; Mann-Whitney-Wilcoxon U-test): significantly reduced
- Activity Rating ([3]; OCI-LY-7 in NOG mice, days 0-27): ++++ (Complete remission T/C < 5%)
- Min. T/C [%] (Day) ([3]; OCI-LY-7 in NOG mice, days 0-27, minimum on day 19, 25 mg/kg/day): 2.6% and 2.6 (19) %
- Survival rate [3, 5]: 80%
- median BWL (body weight loss) [3, 5]: 17.9%
- tolerability profile ([3]; lymphoma xenograft bearing mice): acceptable tolerability profile
- IC50 (TL-SU): 2130 nM
- IC50 (MT-1): 1200 nM
- IC50 (OCI-LY-3): 340 nM
- IC50 (OCI-LY-19): 480 nM
- IC50 (HT): 710 nM
- IC50 (MT-2): 520 nM
- IC50 (MT-4): 1410 nM
- IC50 (Jeko-1): 740 nM
- IC50 (SU-DHL-4): 170 nM
- IC50 (KM-H2): 2200 nM
- IC50 (DB): 570 nM
- IC50 (Karpas422): 660 nM
- IC50 (HBL1): 540 nM
- IC50 (SU-DHL-10): 600 nM
- IC50 (ATN-1): 440 nM
- IC50 (SU-DHL-6): 360 nM
- IC50 (SU-DHL-8): 610 nM
- IC50 (MJ): 540 nM
- IC50 (Ramos): 1100 nM
- IC50 (TL-Om1): 790 nM
